≈ marks a conversion by molar mass, not a printed value.
Tested on: E. faecalis DSM 2570
Test: MIC 50, broth micro-dilution, DSM strains
Format: cell-based, Enterococcus faecalis
Settings: Enterococcus faecalis, DSM2570, read-out: MIC 50
Excerpt: 3.2 Against Selected Bacteria of the ESKAPE Panel and Enterococcus faecalis (DSM Strains)
Tested reference compounds. Amikacin sulfate (Cat. No. 01693, Chem-Impex), Gentamicin sulfate (Cat. No. G4918, Sigma Aldrich).
Microbial strains. Enterococcus faecalis DSM 2570, Klebsiella pneumoniae DSM 26371, Acinetobacter baumannii DSM 105126, Enterobacter cloacae 3MRGN (clinical bronchial aspirate isolate).
Culture media and equipment. BBL™ Mueller Hinton Broth 2 (Lot. BCBW1143, Cat. No. 70192, Sigma); Trypcase Soy Blood-agar plates (Cat. No. 43001, Biomérieux); Cryoinstant (contains 15% glycerol; Cat. No. 822070ZA, VWR International); GasPak™ EZ Standard Incubation Container (Cat. No. 260671, Becton Dickinson); GasPak™ EZ Campy Container System Sachets (Cat. No. 260680, Becton Dickinson); 96-well deep well plate, 1 mL (Cat. No. 0030506.200, Eppendorf); Plate lid (Cat. No. 0030131.525, Eppendorf); 96-well plate, F-bottom (Cat. No. 260860, Nunc); Incubator (Sartorius Certomat BS-1); Laminar flow (Heraeus HS12); UV/VIS meter (Perkin Elmer Lambda Bio+); Platereader (Tecan Infinite M200 Pro).
Compound preparation. Compounds were prepared in MH2 media at a concentration of 5 mM and stored at 4° C. For testing, solutions of 128 μM were prepared in MH2, for tests against E. faecalis a solution of 512 μM was prepared. Out of these working solutions, 400 μL was transferred to wells in the first column of 96-well deep well plates. Each compound was transferred in triplicate. Plates were previously filled with 200 μL of MH2 media in all wells except for the wells in the first column. After compound and antibiotic addition, the compounds were serial two-fold diluted by transferring 200 μL from the first to the second column, then from the second to the third column and so on. Finally, 200 μL was removed from the last column.
Inoculum preparation. Microorganisms used were all revived from 15% glycerol storage in Croinstant tubes at −28° C. by plating them on blood agar plates. A. baumanni, and E. cloacae were grown aerobically at 37° C., E. faecalis was grown microaerophilically at 37° C., and K. pneumoniae was grown aerobically at 37° C. Plates were stored at 4° C. for up to two weeks, after which new plates were prepared from −28° C. A single colony was inoculated in MH2 media and grown at 37° C. and 200 rpm to an optical density (measured by UV/Vis spectroscopy) of 0.6-0.8 at 600 nm. Out of these suspensions, actual inoculums were prepared by diluting them to an optical density of 0.1 in MH2 media. From these inoculums, 200 μL was transferred to each well, resulting in a final compound concentration range of 64 μM-31.3 nM for, K. pneumoniae, A. baumanni, and E. cloacae, and 256 μM-125 nM for E. faecalis. Plates inoculated with E. faecalis were placed inside a GasPak™ Container System with GasPak™ Campy Container System sachets. All plates were incubated at 200 rpm for 18 h under the microorganism culturing conditions mentioned above.
MIC determination. After 18 h of growth, 200 μL was transferred to a 96-well F-bottom plate. The optical density was determined by a plate reader at 600 nm, with 10 s shaking before reading. Triplicate measurements were averaged, and a growth curve was plotted in Excel. The first column in which the growth reached half the value of maximum growth was determined as the MIC50 value for that particular compound.
MIC50. The MIC50 of a compound was assigned at which the bacterial growth reached half the value of maximum growth.

SMILES	MIC50 [µM]
N=C(NC[C@@H]1CCCN1)NC1[C@@H](O)C(OC2[C@@H](F)[C@H](O[C@H]3OC(CN)[C@@H](O)CC3N)C(N)C[C@H]2NC(=O)[C@@H](O)CCN)O[C@H](CO)[C@H]1O (stereo partly drawn) [ABX5026, Tobra-AHB-F-Gua (S) pyrrolidine-2-yl-methyl]	32 (≈ 22.3 µg/mL)
N=C(NCC1CC1)NC1[C@@H](O)C(OC2[C@@H](F)[C@H](O[C@H]3OC(CN)[C@@H](O)CC3N)C(N)C[C@H]2NC(=O)[C@@H](O)CCN)O[C@H](CO)[C@H]1O (some centres unmarked) [ABX5027, Tobra-AHB-F-Gua cyclopropylmethyl]	32 (≈ 21.3 µg/mL)
N=C(NCCO)NC1[C@@H](O)C(OC2[C@@H](F)[C@H](O[C@H]3OC(CN)[C@@H](O)CC3N)C(N)C[C@H]2NC(=O)[C@@H](O)CCN)O[C@H](CO)[C@H]1O (some centres unmarked) [ABX5029, Tobra-AHB-F-Gua 2-hydroxy-ethyl]	64 (≈ 42 µg/mL)
N=C(NCCCN)NC1[C@@H](O)C(OC2[C@@H](F)[C@H](O[C@H]3OC(CN)[C@@H](O)CC3N)C(N)C[C@H]2NC(=O)[C@@H](O)CCN)O[C@H](CO)[C@H]1O (some centres unmarked) [ABX5030, Tobra-AHB-F-Gua-3-amino-propyl]	32 (≈ 21.4 µg/mL)
CNCCNC(=N)NC1[C@@H](O)C(OC2[C@@H](F)[C@H](O[C@H]3OC(CN)[C@@H](O)CC3N)C(N)C[C@H]2NC(=O)[C@@H](O)CCN)O[C@H](CO)[C@H]1O (some centres unmarked) [ABX5038, Tobra-AHB-F-Gua 2-(methylamino)ethyl]	16 (≈ 10.7 µg/mL)
N=C(NC[C@@H]1CCNC1)NC1[C@@H](O)C(OC2[C@@H](F)[C@H](O[C@H]3OC(CN)[C@@H](O)CC3N)C(N)C[C@H]2NC(=O)[C@@H](O)CCN)O[C@H](CO)[C@H]1O (stereo partly drawn) [ABX5039, Tobra-AHB-F-Gua (R) pyrrolidine-3-ylmethyl]	16 (≈ 11.1 µg/mL)
N=C(NC[C@@H]1CNCCO1)NC1[C@@H](O)C(OC2[C@@H](F)[C@H](O[C@H]3OC(CN)[C@@H](O)CC3N)C(N)C[C@H]2NC(=O)[C@@H](O)CCN)O[C@H](CO)[C@H]1O (stereo partly drawn) [ABX5040, Tobra-AHB-F-Gua (S) morpholin-2-yl methyl]	16 (≈ 11.4 µg/mL)
N=C(NCCCO)NC1[C@@H](O)C(OC2[C@@H](F)[C@H](O[C@H]3OC(CN)[C@@H](O)CC3N)C(N)C[C@H]2NC(=O)[C@@H](O)CCN)O[C@H](CO)[C@H]1O (some centres unmarked) [ABX5041, Tobra-AHB-F-Gua 3-hydroxy-propyl]	4 to 8 (≈ 2.68 to 5.37 µg/mL)
N=C(NC[C@H]1CCNC1)NC1[C@@H](O)C(OC2[C@@H](F)[C@H](O[C@H]3OC(CN)[C@@H](O)CC3N)C(N)C[C@H]2NC(=O)[C@@H](O)CCN)O[C@H](CO)[C@H]1O (stereo partly drawn) [ABX5042, Tobra-AHB-F-Gua (S) pyrrolidine-3-ylmethyl]	8 (≈ 5.57 µg/mL)
N=C(NC[C@H]1CNCCO1)NC1[C@@H](O)C(OC2[C@@H](F)[C@H](O[C@H]3OC(CN)[C@@H](O)CC3N)C(N)C[C@H]2NC(=O)[C@@H](O)CCN)O[C@H](CO)[C@H]1O (stereo partly drawn) [ABX5043, Tobra-AHB-F-Gua (R) morpholin-2-yl methyl]	16 (≈ 11.4 µg/mL)
N=C(N)NC1[C@@H](O)C(OC2[C@@H](F)[C@H](O[C@H]3OC(CNCCO)[C@@H](O)CC3N)C(N)C[C@H]2NC(=O)[C@@H](O)CCN)O[C@H](CO)[C@H]1O (some centres unmarked) [ABX5045, 6N-2-hydroxy-ethyl-Tobra-AHB-F-Gua]	8 to 16 (≈ 5.25 to 10.5 µg/mL)
N=C(NCC1CCCO1)NC1[C@@H](O)C(OC2[C@@H](F)[C@H](O[C@H]3OC(CN)[C@@H](O)CC3N)C(N)C[C@H]2NC(=O)[C@@H](O)CCN)O[C@H](CO)[C@H]1O (some centres unmarked) [ABX5046, Tobra-AHB-F-Gua tetrahydrofuran-2-yl methyl]	8 to 16 (≈ 5.57 to 11.1 µg/mL)
C[C@@H](N)CCNC(=N)NC1[C@@H](O)C(OC2[C@@H](F)[C@H](O[C@H]3OC(CN)[C@@H](O)CC3N)C(N)C[C@H]2NC(=O)[C@@H](O)CCN)O[C@H](CO)[C@H]1O (stereo partly drawn) [ABX5047, Tobra-AHB-F-Gua (R) 3-amino-butyl]	2 to 4 (≈ 1.37 to 2.74 µg/mL)
N=C(NCc1ccncc1)NC1[C@@H](O)C(OC2[C@@H](F)[C@H](O[C@H]3OC(CN)[C@@H](O)CC3N)C(N)C[C@H]2NC(=O)[C@@H](O)CCN)O[C@H](CO)[C@H]1O (some centres unmarked) [ABX5048, Tobra-AHB-F-Gua pyridin-4-yl methyl]	8 (≈ 5.63 µg/mL)
N=C(NCc1cnc[nH]1)NC1[C@@H](O)C(OC2[C@@H](F)[C@H](O[C@H]3OC(CN)[C@@H](O)CC3N)C(N)C[C@H]2NC(=O)[C@@H](O)CCN)O[C@H](CO)[C@H]1O (some centres unmarked) [ABX5050, Tobra-AHB-F-Gua imidazol-5-yl methyl]	8 to 16 (≈ 5.54 to 11.1 µg/mL)
N=C(NCC1CCOC1)NC1[C@@H](O)C(OC2[C@@H](F)[C@H](O[C@H]3OC(CN)[C@@H](O)CC3N)C(N)C[C@H]2NC(=O)[C@@H](O)CCN)O[C@H](CO)[C@H]1O (some centres unmarked) [ABX5051, Tobra-AHB-F-Gua tetrahydrofuran-3-yl methyl]	8 (≈ 5.57 µg/mL)
NCC[C@H](O)C(=O)N[C@@H]1C[C@H](N)[C@@H](O[C@H]2O[C@H](CN)[C@@H](O)[C@H](O)[C@H]2O)[C@H](O)[C@H]1O[C@H]1O[C@H](CO)[C@@H](O)[C@H](N)[C@H]1O [Amikacin, amikacin, reference compound]	> 64

— patent publication US20220127297A1, “Novel Antibacterial 3"-Derivatives Of 4,6-Disubstituted 2,5-Dideoxystreptamine Aminoglycoside Antibiotics” (AGILeBiotics B.V., priority 2018, published 2022)
